Results reported in publication PMC11542593, “Vascular endothelial growth factor receptor 2 as a potential host target for the inhibition of enterovirus replication” (Journal of Virology, 2024).
Structures can show the parent of a compound that is named as a salt.

What was measured:
[1] = system: EV-A71; test: Viral load reduction assay in RD cells (RT-qPCR, TCID50, VP1 Western blot); format: cell-based, Human enterovirus A71; details: for EV-A71 viral load and viral titer, dose dependence: indicated noncytotoxic concentrations, MOI 0.1, 24 h; for EV-A71 viral load and viral titer in cell lysates and supernatant: 10 μM, MOI 0.01, 24 h
Protocol: Detection of cellular mRNA expression and viral load was performed as described previously ([24]). In brief, the infected or mock-infected cells were lysed and applied to total RNA extraction by using the MiniBEST Universal RNA Extraction Kit (TaKaRa, Code No.9767). Viral RNA in the supernatant was extracted with the MiniBEST Viral RNA Extraction Kit (TaKaRa, Code No.9766). Reverse transcription was performed using the PrimeScript RT reagent Kit (TaKaRa, Code No.PR037A) with an oligo (dT) primer. The resultant cDNAs were used for qPCR assay with the Light Cycler 480 SYBR Green I Master Mix (Roche) to measure the mRNA expression level of cellular genes or viral load in supernatants. The relative viral gene copy was determined by RT-qPCR, using GAPDH as an internal reference.
The viral titer in the indicated samples was determined by TCID50 assay as described previously ([25]). Briefly, serially diluted samples from 10^−1 to 10^−8 in DMEM were inoculated to RD cells, BGMK cells, or MRC-5 in 96‐well plates. The cells were then incubated for 2 to 3 days at 37°C. TCID50 was calculated by counting the wells with cytopathic effect in infected cells using the Reed–Muench method.
(§1) Western blot analysis was performed as described previously ([26]). In brief, the indicated cell samples were lysed in RIPA buffer supplemented with protease inhibitors (Thermo Fisher Scientific, 78430). The cell lysates were then separated in 10% SDS-PAGE and transferred to a 0.45-µm nitrocellulose membrane. After blocking, the membrane was incubated with an against VP1 antibody (GeneTex, GTX132339), VEGFR1 antibody (Abcam, ab32152), VEGFR2 antibody (Abcam, ab134191), phosphorylated VEGFR2 antibody (Tyr951) (CST 4991), VEGFR3 antibody (Beyotime, AF6918), Akt antibody (CST 4685), phosphorylated Akt antibody (CST 4060), or GAPDH antibody (GeneTex, GTX627408) diluted 1:5,000 in primary antibody dilution buffer overnight at 4°C, followed by corresponding secondary staining. The blots were visualized by western horseradish peroxidase substrate and imaged with Gel Doc XR+.
The results represent cell viability in the EV-A71-infected RD cells or 2D human intestinal organoids treated with DMSO (Negative control), Pirodavir (Positive control), or indicated VEGFR inhibitor (10 µM) relative to those in mock-infected RD cells or 2D human intestinal organoids. […] Significant inhibition of EV-A71 infection was found for both cell lysate (left) and supernatant (right) using RT-qPCR analysis. The results represent the viral load in the cells treated with indicated inhibitors relative to that in DMSO-treated cells. (C) Viral titer was also determined for inhibitor-treated samples in TCID50 assays. […] (D) Representative images of immunofluorescence assay for selected inhibitors using Rabbit anti‐VP1 antibody (green). Nuclei are counterstained with DAPI (blue). Scale bar, 50 µm.
Nuclei are counterstained with DAPI (blue). Scale bar, 50 µm.
Fig. S2. […] The results represent the viral load in the cells treated with indicated concentration of VEGFR inhibitors relative to that in DMSO-treated cells. Viral titer was also determined for samples treated with indicated concentrations of VEGFR inhibitors in TCID50 assays.
(§2) Fig. S7. Viral reduction in RD cells with Src inhibitor treatment. […] Significant inhibition of EV-A71 infection was found for both cell lysate (left) and supernatant (middle) using RT-qPCR analysis. The results represent the viral load in the cells treated with Dasatinib relative to that in DMSO-treated cells. Viral titer was also determined for inhibitor-treated samples in TCID50 assays (right). […] (C) VP1 protein levels were measured for samples treated with DMSO or Dasatinib using western blotting.
Fig. S8. Viral reduction in RD cells with Akt inhibitor treatment. […] Significant inhibition of EV-A71 infection was found for both cell lysate (left) and supernatant (middle) using RT-qPCR analysis. […]

[2] = CellTiter-Glo luminescent cell viability assay (cytotoxicity); details: human
Protocol: Fig. S1. (A) RD cells were treated with the indicated concentrations of inhibitors and incubated at 37°C for 24 h. CellTiter‐Glo® luminescent cell viability assay was used to measure the CC50 of selected inhibitors. […] (B) RD cells treated with the selected inhibitors (10 μM) were inoculated with EV-A71 at an MOI of 0.01. At 48 hpi, cells were harvested to detect the expression level of VP1 by western blotting.

[3] = system: EV-A71; test: Cytopathic effect (CPE) inhibition assay in RD cells; format: cell-based, Human enterovirus A71; details: EV-A71, RD cells; for EC50: Enterovirus A, EVA71, read-out: EC50, compound concentration required to achieve 50% protection from virus-induced cytopathogenicity
[4] = system: Akt phosphorylation; test: Western blot of phosphorylated Akt and total Akt in RD cells; format: cell-based; details: total Akt levels unaltered
Protocol: as §1
as §2, with “S8.” for “S7.”, “Akt” for “Src”, “MK-2206” for “Dasatinib”, “The levels of VP1, phosphorylated Akt and total Akt” for “VP1”, “protein” for “protein levels”
Fig. S9. […] (A) RD cells were infected with EV-A71 at an MOI of 1, and cell lysates were collected at the indicated times. Western blotting assays were then performed to assess the levels of phosphorylated Akt and total Akt. (B)The plasmids pVEGFR2 or pEmpty vector were transfected into RD cells. At the indicated times post-transfection, cells were harvested to detect the expression levels of phosphorylated Akt and total Akt by western blotting. […] Western blotting assays were then performed to assess the levels of phosphorylated Akt and total Akt. […] At 1 hpi, cells were harvested to detect the expression levels of phosphorylated Akt and total Akt by western blotting. […]

## CNC(=O)c1ccccc1Sc1ccc2c(/C=C/c3ccccn3)n[nH]c2c1 [Axitinib]
[1]
  EV-A71 viral load and viral titer, dose dependence: dose-dependent inhibition
[2]; RD cells
  CC50 at 24 h: 104 ± 17.6 µM

## Cc1cc2c(F)c(Oc3ncnn4cc(OC[C@@H](C)O)c(C)c34)ccc2[nH]1 [Brivanib]
[1]
  EV-A71 viral load and viral titer, dose dependence: dose-dependent inhibition
[3]
  SI (selectivity index), ratio CC50/EC50: 21.28
  EC50: 1.94 ± 0.33 µM
[2]
  CC50 at 24 h: 41.3 ± 2.83 µM

## Cc1nc(Nc2ncc(C(=O)Nc3c(C)cccc3Cl)s2)cc(N2CCN(CCO)CC2)n1 [Dasatinib]
[1]
  EV-A71 viral load and viral titer in cell lysates and supernatant: significantly reduced
[1]; vs DMSO
  EV-A71 structural protein VP1 expression (Western blot): markedly decreased

## NC1(c2ccc(-c3nc4ccn5c(=O)[nH]nc5c4cc3-c3ccccc3)cc2)CCC1 [MK-2206, MK-2206 dihydrochloride]
[4]
  Akt phosphorylation following EV-A71 infection: significantly inhibited Akt phosphorylation
[1]
  EV-A71 viral load and viral titer in cell lysates and supernatant: significantly suppressed

## CCOC(=O)c1ccc(OCCC2CCN(c3ccc(C)nn3)CC2)cc1 [Pirodavir]
[3]
  SI (selectivity index), ratio CC50/EC50: 120.14
  EC50: 0.44 ± 0.08 µM
[2]
  CC50 at 24 h: 52.9 ± 1.25 µM

## Cc1[nH]c(/C=C2\C(=O)Nc3ccc(F)cc32)c(C)c1C(=O)NC[C@H](O)CN1CCOCC1 [SU14813]
[1]
  EV-A71 viral load and viral titer, dose dependence: dose-dependent inhibition
[3]
  SI (selectivity index), ratio CC50/EC50: 15.23
  EC50: 1.73 ± 0.18 µM
[2]; RD cells
  CC50 at 24 h: 26.4 ± 6.09 µM
